From patent US9895352B2, “Indolinone compounds and uses thereof” (Oncternal Therapeutics, Inc., priority 2014, dated 2018) come the findings set out here.

The test system of series [1] is SKES cells (Ewing Sarcoma cell line). The series is described as follows: CCK-8 tetrazolium tumor cell growth inhibition, SKES. The format is cell-based. As to conditions: Homo sapiens. The procedure:
A modified tetrazolium salt assay using the CCK-8 kit (Sigma-Aldrich; St Louis, Mo.) was used to measure the inhibition of human tumor cell growth. Tumor cells (5000-7500 per well) were added to 96 well plates and allowed to attach for 4-5 hours. Compounds were serially diluted and added in triplicate at a concentration of 0.02 to 5 μM. DMSO was included as a vehicle control. Cells were incubated in the presence of compound for 3 days. After incubation CCK-8 reagent was added to each well and incubated for 2-4 hours. Viable cells were quantitated spectrophotometrically at a wavelength of 450 nm. Percent viability of each sample was calculated from the A450 values as follows: % viability=(A450 nm sample/A450 nm DMSO-treated cells×100). […] IC50 activities of particular compounds were determined using SKES cells (Ewing Sarcoma cell line).

A short description of series [2]: Metabolic stability, half-life and clearance in human liver microsomes. The format is in vitro ADME. As to conditions: for CLhep: hepatic clearance where blood flow = 20 mL/min/kg. The procedure: (§1) Half-life and clearance rates for certain compounds were assayed with human liver microsomes and human hepatocytes. […] At each time point (0, 5, 15, 30, 60, 90 min) the reactions were stopped, vortexed and centrifuged. Supernatents were frozen until LC/MS/MS analysis. The results for human liver microsomes and human hepactocytes are summarized in TABLE 9, and TABLE 10, respectively. Certain compounds were assayed with human liver microsomes (HLM) and human hepatocytes, and metabolites were detected. Briefly, metabolic stability was tested at one TA concentration (e.g., 1 μM) in duplicate. […] Incubations were saved and used for metabolite identification using LC/MS/MS. […] The slope of the linear regression from log percentage remaining versus incubation time relationships (−k) was determined by linear regression fitting. From the individual log percentage remaining time profiles, the mean half-life and intrinsic clearance were reported. UHPLC-HRMS or UHPLC-MS/MS experiment was performed on the authentic test articles to check for possible common fragment ions. […] The metabolites were summarized based on their mass spectrometry peak areas.
For orientation: Liver microsomes are a subcellular fraction often used to study metabolism.

Series [3] in a line: Metabolic stability, half-life and clearance in human hepatocytes. As to conditions: for % remaining / half-life: Human hepatocytes; for CLhep: human hepatocytes, hepatic clearance where blood flow = 20 mL/min/kg. The format is in vitro ADME. The procedure: as §1
Series [4] in a line: Half-life in mouse hepatocytes. The format is in vitro ADME. As to conditions: read-out: Half life of cmpds. The procedure: (§2) In another study, metabolism of compounds in hepatocytes from various species was examined. Hepatocytes were contacted with a compound, and the half-life of the compound was determined.
A short description of series [5]: Half-life in rat hepatocytes. The format is in vitro ADME. As to conditions: for half-life: read-out: Half life of cmpds. The procedure: as §2
Series [6] is described as follows: Half-life in dog hepatocytes. The format is in vitro ADME. As to conditions: for half-life: read-out: Half life of cmpds. The procedure: as §2
A short description of series [7]: Half-life in human hepatocytes. The format is in vitro ADME. As to conditions: read-out: Half life of cmpds. The procedure:
as §2

Experiment in series [8]: not given
This is another data set of the same source.

Experiment in series [9]: not given
The source holds these as a separate data set.

Experiment in series [10]: not given
This is another data set of the same source.

Series [11] is described as follows: in vitro. As to conditions: rat, liver microsomes.
Series [12] can be described thus: in vitro. As to conditions: mouse.
Setting [13] is: 72 h, SKES cells, 3 days with compound, CCK-8 (TABLE 3).
The mark [14] stands for this setting: human liver microsome, no cofactor, 60 min.
Where [15] appears, read: rat liver microsome, no cofactor, 60 min.
Where [16] appears, read: mouse liver microsome, no cofactor, 60 min.
Where [17] appears, read: dog liver microsome, no cofactor, 60 min.

Read-outs that look alike come from different tables or passages of the source. Where only a bound is given, the exact number is not on record here.

One may read the IC50 as the concentration that inhibits the measured activity by half. One may read the half-life as the time in which the quantity being followed falls by half. In the case of `COc1ccc(C(=O)CC2(O)C(=O)Nc3c(Cl)ccc(Cl)c32)cc1` (racemic) [Cmpd 1, 4,7-Dichloro-3-hydroxy-3-[2-(4-methoxyphenyl-2-oxoethyl)]-1,3-dihydroindol-2-one], the IC50 in series [1] (setting [13]) is less than 5 µM. The “% remaining” value in series [2] amounted to 5%; in series [3] it was 48%. Further, the half-life came to 10.3 min in series [2]; 226 min in series [3]; 30.9 min in series [4]; 14.2 min in series [5]; 16.7 min in series [6]; 45.5 min in series [7]. For the same compound, the CLhep is reported as 17.28 mL/min/kg in series [2] and 8.7 mL/min/kg in series [3].

In the case of `CNc1ccc(C(=O)CC2(O)C(=O)Nc3c(Cl)ccc(Cl)c32)cc1` (racemic) [Cmpd 7, 4,7-dichloro-3-hydroxy-3-[2-[4-(methylamino)phenyl]-2-oxoethyl]-1H-indol-2-one], in series [2], the “% remaining” value came out at 49%, the half-life was greater than 45 min and the CLhep is roughly 11.54 mL/min/kg. In series [3], the “% remaining” value worked out at 100%, the half-life was greater than 240 min and the CLhep is listed as less than 8.7 mL/min/kg.

As to `COc1ccc(C(=O)CC2(O)C(=O)Nc3c(Cl)ccc(Cl)c32)cc1` (single isomer, unassigned) [Cmpd 3, 4,7-Dichloro-3-hydroxy-3-[2-(4-methoxyphenyl-2-oxoethyl)]-1,3-dihydroindol-2-one], the “Remaining (NCF = 60 min)” value under setting [14] worked out at 112.6%, the “Remaining (NCF = 60 min)” value in series [8] (setting [15]) came out at 92.6%, the “Remaining (NCF = 60 min)” value in series [9] (setting [16]) is 97.5% and the “Remaining (NCF = 60 min)” value in series [10] (setting [17]) was determined as 100.1%.

For the compound `O=C(CC1(O)C(=O)Nc2c(Cl)ccc(Cl)c21)c1ccc(C2CC2)cc1` (single isomer, unassigned) [Cmpd 13, 4,7-Dichloro-3-(2-(4-cyclopropylphenyl)-2-oxoethyl)-3-hydroxyindolin-2-one], the IC50 was greater than 5 µM in series [1] (setting [13]) and greater than 5 µM in series [1] (SKES, ES, EWS-FLI1 Type 2). The “Remaining (NCF = 60 min)” value under setting [14] was determined as 105.1%, the “Remaining (NCF = 60 min)” value in [8] (setting [15]) came to 97.0%, the “Remaining (NCF = 60 min)” value in [9] (setting [16]) worked out at 85.6% and the “Remaining (NCF = 60 min)” value in series [10] (setting [17]) is recorded as 98.4%.

With `O=C(CC1(O)C(=O)Nc2c(Cl)ccc(Cl)c21)c1ccc(C2CC2)c(F)c1` (single isomer, unassigned) [Cmpd 37, 4,7-Dichloro-3-(2-(4-cyclopropyl-3-fluorophenyl)-2-oxoethyl)-3-hydroxyindolin-2-one], the “Remaining (NCF = 60 min)” value under setting [14] is listed as 103.4%. Moreover, the half-life in series [11] turned out to be 3.5 min; in series [12] (liver microsomes), 20.7 min.

For the compound `O=C(CC1(O)C(=O)Nc2c(Cl)ccc(Cl)c21)c1ccc(C2CC2)cc1F` (single isomer, unassigned) [Cmpd 38, 4,7-Dichloro-3-(2-(4-cyclopropyl-2-fluorophenyl)-2-oxoethyl)-3-hydroxyindolin-2-one], the “Remaining (NCF = 60 min)” value under setting [14] is given as 99.5%.

As for `O=C(CC1(O)C(=O)Nc2c(Cl)ccc(Cl)c21)c1ccc(C2CC2)cc1F` (single isomer, unassigned) [Cmpd 39, 4,7-Dichloro-3-(2-(4-cyclopropyl-2-fluorophenyl)-2-oxoethyl)-3-hydroxyindolin-2-one], the “Remaining (NCF = 60 min)” value under setting [14] is reported as 100.0%. Also, the half-life in series [11] was 3 min.

With `CCOc1ccc2ccc(=O)oc2c1` [7-Ethoxycoumarin, reference compound], the half-life in [4] was determined as 37.9 min; in [5], 38.2 min; in series [7] it was 45.3 min. For the same compound, the “Half life of cmpds” value in series [6] came out at 9.14 min.

Consider `O=c1ccc2ccc(O)cc2o1` [7-Hydroxycoumarin, reference compound], for which the figures for the half-life in series [4], in series [6] and in series [7] were 15.8 min, 9.38 min and 20.8 min, respectively. Further, the “Half life of cmpds” value in series [5] turned out to be 12.41 min.

`O=C(O)Cc1ccccc1Nc1c(Cl)cccc1Cl` [Diclofenac, reference compound]: the “Remaining (NCF = 60 min)” value (human, microsomes, 1 h) was determined as 77.8%; the “Remaining (NCF = 60 min)” value in [8] (rat, microsomes, 1 h) is recorded as 94.1%; the “Remaining (NCF = 60 min)” value in [9] (mouse, microsomes, 1 h) is on record as 88.1%; the “Remaining (NCF = 60 min)” value in series [10] (dog, microsomes, 1 h) was found to be 89.6%. The half-life in series [12] (microsomes) turned out to be 39.2 min.

In the case of `C[C@]12CC[C@H]3[C@@H](CCC4=CC(=O)CC[C@@]43C)[C@@H]1CC[C@@H]2O` [Testosterone, reference compound], the “Remaining (NCF = 60 min)” value under setting [14] was determined as 88.1%, the “Remaining (NCF = 60 min)” value in series [8] (setting [15]) amounted to 87.3%, the “Remaining (NCF = 60 min)” value in series [9] (setting [16]) is 83.6% and the “Remaining (NCF = 60 min)” value in [10] (setting [17]) is 91.0%. The half-life in series [12] (microsomes) stood at 3.3 min.
